Measurements reported in the NIST ThermoML archive (doi:10.1016/j.jct.2016.05.019).
Values joined by “and” are separate entries in the source; they are usually repeats but may differ in a detail not shown here. Equal entries are not always repeated.

Conditions: Liquid; for mass density: Bellows volumetry

CCC(C)C [2-methylbutane]
Conditions	mass density
280 K, 1000 kPa	633.54 kg/m3
280 K, 2000 kPa	634.7 kg/m3
280 K, 3000 kPa	635.86 kg/m3
280 K, 5000 kPa	638.02 kg/m3
280 K, 10000 kPa	643.42 kg/m3
280 K, 20000 kPa	653.11 kg/m3
280 K, 30000 kPa	661.46 kg/m3
280 K, 40000 kPa	669.03 kg/m3
280 K, 50000 kPa	675.94 kg/m3
280 K, 60000 kPa	682.44 kg/m3
280 K, 70000 kPa	688.43 kg/m3
280 K, 80000 kPa	694.03 kg/m3
280 K, 90000 kPa	699.3 kg/m3
280 K, 100000 kPa	704.35 kg/m3
280 K, 120000 kPa	713.77 kg/m3
280 K, 140000 kPa	722.2 kg/m3
280 K, 160000 kPa	729.89 kg/m3
280 K, 180000 kPa	737.33 kg/m3
280 K, 200000 kPa	744.07 kg/m3
298.14 K, 10200 kPa	627.35 kg/m3
298.14 K, 40600 kPa	656.53 kg/m3
298.14 K, 101400 kPa	694.83 kg/m3
298.14 K, 177400 kPa	727.57 kg/m3
300 K, 1000 kPa	613.77 kg/m3
300 K, 2000 kPa	615.18 kg/m3
300 K, 3000 kPa	616.54 kg/m3
300 K, 5000 kPa	619.26 kg/m3
300 K, 10000 kPa	625.53 kg/m3
300 K, 20000 kPa	636.61 kg/m3
300 K, 30000 kPa	646.19 kg/m3
300 K, 40000 kPa	654.71 kg/m3
300 K, 50000 kPa	662.36 kg/m3
300 K, 60000 kPa	669.45 kg/m3
300 K, 70000 kPa	675.91 kg/m3
300 K, 80000 kPa	682.03 kg/m3
300 K, 90000 kPa	687.64 kg/m3
300 K, 100000 kPa	692.98 kg/m3
300 K, 120000 kPa	702.76 kg/m3
300 K, 140000 kPa	711.75 kg/m3
300 K, 160000 kPa	719.81 kg/m3
300 K, 180000 kPa	727.5 kg/m3
300 K, 200000 kPa	734.71 kg/m3
320 K, 199 kPa	592.04 kg/m3
320 K, 210 kPa	592.07 kg/m3
320 K, 315 kPa	592.25 kg/m3
320 K, 502 kPa	592.61 kg/m3
320 K, 1000 kPa	593.5 kg/m3 and 592.72 kg/m3
320 K, 2000 kPa	595.25 kg/m3 and 594.35 kg/m3
320 K, 3000 kPa	596.07 kg/m3
320 K, 5000 kPa	599.33 kg/m3
320 K, 10000 kPa	606.77 kg/m3
320 K, 20000 kPa	619.58 kg/m3
320 K, 30000 kPa	630.46 kg/m3
320 K, 40000 kPa	639.89 kg/m3
320 K, 50000 kPa	648.39 kg/m3
320 K, 60000 kPa	656.03 kg/m3
320 K, 70000 kPa	662.98 kg/m3
320 K, 80000 kPa	669.62 kg/m3
320 K, 90000 kPa	675.83 kg/m3
320 K, 100000 kPa	681.48 kg/m3
320 K, 120000 kPa	691.83 kg/m3
320 K, 140000 kPa	701.5 kg/m3
320 K, 160000 kPa	710.26 kg/m3
320 K, 180000 kPa	718.37 kg/m3
320 K, 200000 kPa	725.65 kg/m3
323.13 K, 49030 kPa	645.8 kg/m3
323.13 K, 98070 kPa	678.79 kg/m3
323.13 K, 147100 kPa	703.2 kg/m3
323.13 K, 196130 kPa	722.79 kg/m3
340 K, 338 kPa	569.61 kg/m3
340 K, 420 kPa	569.78 kg/m3
340 K, 513 kPa	570.01 kg/m3
340 K, 1000 kPa	571.14 kg/m3 and 570.66 kg/m3
340 K, 2000 kPa	572.85 kg/m3
340 K, 3000 kPa	574.98 kg/m3
340 K, 5000 kPa	578.97 kg/m3
340 K, 10000 kPa	587.99 kg/m3
340 K, 20000 kPa	602.92 kg/m3
340 K, 30000 kPa	615.28 kg/m3
340 K, 40000 kPa	625.82 kg/m3
340 K, 50000 kPa	635.12 kg/m3
340 K, 60000 kPa	643.45 kg/m3
340 K, 70000 kPa	651.03 kg/m3
340 K, 80000 kPa	658.05 kg/m3
340 K, 90000 kPa	664.53 kg/m3
340 K, 100000 kPa	670.52 kg/m3
340 K, 120000 kPa	681.53 kg/m3
340 K, 140000 kPa	691.52 kg/m3
340 K, 160000 kPa	700.49 kg/m3
340 K, 180000 kPa	708.89 kg/m3
340 K, 200000 kPa	716.61 kg/m3
360 K, 550 kPa	544.65 kg/m3
360 K, 608 kPa	544.68 kg/m3
360 K, 609 kPa	544.84 kg/m3
360 K, 702 kPa	545.09 kg/m3
360 K, 1000 kPa	545.87 kg/m3 and 545.89 kg/m3
360 K, 2000 kPa	548.79 kg/m3
360 K, 3000 kPa	551.5 kg/m3
360 K, 5000 kPa	556.57 kg/m3
360 K, 10000 kPa	567.71 kg/m3
360 K, 20000 kPa	585.18 kg/m3
360 K, 30000 kPa	599.16 kg/m3
360 K, 40000 kPa	610.91 kg/m3
360 K, 50000 kPa	621.15 kg/m3
360 K, 60000 kPa	630.27 kg/m3
360 K, 70000 kPa	638.43 kg/m3
360 K, 80000 kPa	645.89 kg/m3
360 K, 90000 kPa	652.93 kg/m3
360 K, 100000 kPa	659.45 kg/m3
360 K, 120000 kPa	671.11 kg/m3
360 K, 140000 kPa	681.34 kg/m3
360 K, 160000 kPa	691.16 kg/m3
360 K, 180000 kPa	699.47 kg/m3
360 K, 200000 kPa	708.18 kg/m3
368.12 K, 98070 kPa	653.72 kg/m3
368.12 K, 147100 kPa	681.34 kg/m3
368.12 K, 196130 kPa	703.04 kg/m3
380 K, 846 kPa	518.39 kg/m3
380 K, 857 kPa	518.44 kg/m3
380 K, 962 kPa	518.87 kg/m3
380 K, 1000 kPa	518.39 kg/m3
380 K, 1001 kPa	519.03 kg/m3
380 K, 2000 kPa	522.38 kg/m3
380 K, 3000 kPa	526.02 kg/m3
380 K, 5000 kPa	532.71 kg/m3
380 K, 10000 kPa	546.59 kg/m3
380 K, 20000 kPa	567.43 kg/m3
380 K, 30000 kPa	583.41 kg/m3
380 K, 40000 kPa	596.53 kg/m3
380 K, 50000 kPa	607.73 kg/m3
380 K, 60000 kPa	617.61 kg/m3
380 K, 70000 kPa	626.4 kg/m3
380 K, 80000 kPa	634.41 kg/m3
380 K, 90000 kPa	641.88 kg/m3
380 K, 100000 kPa	648.74 kg/m3
380 K, 120000 kPa	661.13 kg/m3
380 K, 140000 kPa	672.14 kg/m3
380 K, 160000 kPa	682.07 kg/m3
380 K, 180000 kPa	691.12 kg/m3
380 K, 200000 kPa	699.6 kg/m3
400 K, 1250 kPa	487.6 kg/m3
400 K, 1309 kPa	487.97 kg/m3
400 K, 1506 kPa	489.2 kg/m3
400 K, 1611 kPa	489.83 kg/m3
400 K, 2000 kPa	491.59 kg/m3 and 492.12 kg/m3
400 K, 3000 kPa	497.03 kg/m3
400 K, 5000 kPa	506.33 kg/m3
400 K, 10000 kPa	524.35 kg/m3
400 K, 20000 kPa	549.47 kg/m3
400 K, 30000 kPa	567.78 kg/m3
400 K, 40000 kPa	582.37 kg/m3
400 K, 50000 kPa	594.58 kg/m3
400 K, 60000 kPa	605.35 kg/m3
400 K, 70000 kPa	614.87 kg/m3
400 K, 80000 kPa	623.43 kg/m3
400 K, 90000 kPa	631.33 kg/m3
400 K, 100000 kPa	638.47 kg/m3
400 K, 120000 kPa	651.4 kg/m3
400 K, 140000 kPa	662.94 kg/m3
400 K, 160000 kPa	673.54 kg/m3
400 K, 180000 kPa	682.87 kg/m3
400 K, 200000 kPa	691.58 kg/m3
410 K, 1519 kPa	470.27 kg/m3
410 K, 1623 kPa	471.11 kg/m3
410 K, 2000 kPa	474.02 kg/m3
420 K, 1789 kPa	450.66 kg/m3
420 K, 1800 kPa	450.78 kg/m3
420 K, 1904 kPa	451.92 kg/m3
420 K, 2000 kPa	452.61 kg/m3 and 452.93 kg/m3
420 K, 3000 kPa	461.88 kg/m3
420 K, 5000 kPa	476.16 kg/m3
420 K, 10000 kPa	500.48 kg/m3
420 K, 20000 kPa	530.77 kg/m3
420 K, 30000 kPa	551.51 kg/m3
420 K, 40000 kPa	567.85 kg/m3
420 K, 50000 kPa	581.15 kg/m3
420 K, 60000 kPa	592.84 kg/m3
420 K, 70000 kPa	602.84 kg/m3
420 K, 80000 kPa	612.1 kg/m3
420 K, 90000 kPa	620.5 kg/m3
420 K, 100000 kPa	628.24 kg/m3
420 K, 120000 kPa	641.97 kg/m3
420 K, 140000 kPa	653.97 kg/m3
420 K, 160000 kPa	664.82 kg/m3
420 K, 180000 kPa	674.63 kg/m3
420 K, 200000 kPa	683.74 kg/m3
440 K, 3000 kPa	412.99 kg/m3
440 K, 5000 kPa	439.7 kg/m3
440 K, 10000 kPa	474.4 kg/m3
440 K, 20000 kPa	511.64 kg/m3
440 K, 30000 kPa	535.46 kg/m3
440 K, 40000 kPa	553.42 kg/m3
440 K, 50000 kPa	568.08 kg/m3
440 K, 60000 kPa	580.59 kg/m3
440 K, 70000 kPa	591.44 kg/m3
440 K, 80000 kPa	601.22 kg/m3
440 K, 90000 kPa	610.1 kg/m3
440 K, 100000 kPa	618.08 kg/m3
440 K, 120000 kPa	632.51 kg/m3
440 K, 140000 kPa	645.06 kg/m3
440 K, 160000 kPa	656.44 kg/m3
440 K, 180000 kPa	666.6 kg/m3
440 K, 200000 kPa	676.01 kg/m3

Conditions	mass density [kg/m3]	vapor or sublimation pressure [kPa]
340 K	569.21	328
360 K	544.8	538
380 K	518.31	835
400 K	487.34	1238
410 K	469.93	1487
420 K	450.21	1772
